Assay results: patent US12570655B2, “Cysteine covalent modifiers of AKT1 and uses thereof” (Terremoto Biosciences, Inc., priority 2023, dated 2026)

Tests used:
Format in all cases: cell-based
AKT1 E17K = target: T1, AKT1 E17K (Homo sapiens, UniProt P31749, E17K); assay: Live cell AKT1 E17K target engagement by NanoBRET competitive probe displacement; details: HEK293 cells transfected with kinase-NanoLuciferase fusion, 2 h at 37° C.
T1 construct: expressed in transfected cells; host or cells: HEK293
T1 sequence (P31749 whole entry E17K, the tested form may be a part): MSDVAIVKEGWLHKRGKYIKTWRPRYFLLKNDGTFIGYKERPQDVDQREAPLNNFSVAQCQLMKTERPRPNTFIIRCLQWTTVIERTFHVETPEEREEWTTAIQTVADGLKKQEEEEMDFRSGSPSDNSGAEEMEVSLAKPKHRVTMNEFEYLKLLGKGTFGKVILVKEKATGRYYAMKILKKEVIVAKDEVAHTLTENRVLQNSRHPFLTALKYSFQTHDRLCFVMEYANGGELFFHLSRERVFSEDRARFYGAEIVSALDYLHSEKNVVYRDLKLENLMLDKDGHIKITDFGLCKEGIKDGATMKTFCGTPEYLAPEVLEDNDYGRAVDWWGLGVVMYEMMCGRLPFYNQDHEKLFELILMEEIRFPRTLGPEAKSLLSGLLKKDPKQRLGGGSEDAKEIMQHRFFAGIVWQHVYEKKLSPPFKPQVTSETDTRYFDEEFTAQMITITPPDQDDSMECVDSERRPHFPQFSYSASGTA
How it was run: (§1)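 IC50 reflects displacement of a fluorescent ATP-competitive tracer, dosed near its EC50, from kinase–NanoLuciferase fusions in live HEK293 cells. Cells were incubated with compound and tracer for 2 h at 37 °C, then E600/E460 BRET was read.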

AKT1 WT = target: T2, AKT1 WT (Homo sapiens, UniProt P31749); assay: Live cell AKT1 WT target engagement by NanoBRET competitive probe displacement; details: HEK293 cells transfected with kinase-NanoLuciferase fusion, 2 h at 37° C.
T2 construct: expressed in transfected cells; host or cells: HEK293
T2 sequence (P31749 whole entry, the tested form may be a part): as the sequence (P31749 whole entry E17K, the tested form may be a part) above, with K17E counted along it
How it was run: as §1

[1] = test system: LAPC4 prostate cancer cells; assay: Antiproliferative effects in LAPC4 cells (CellTiter Glo); details: Homo sapiens, LAPC4, 72 h, LAPC4 cells (AKT1 E17K allele), read-out: LAPC4 proliferation IC50
How it was run: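 Seed 1,000 cells/well in IMDM/12% FBS/1% P/S; add compound dilutions (DMSO); incubate 72 h; read intracellular ATP with CellTiter Glo; fit luminescence to log(inhibitor)-response Hill curve for IC50.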

AKT2 = target: T3, AKT2 (Homo sapiens, UniProt P31751); assay: Live cell AKT2 target engagement by NanoBRET competitive probe displacement; details: HEK293 cells transfected with kinase-NanoLuciferase fusion, 2 h at 37° C.
T3 construct: expressed in transfected cells; host or cells: HEK293
T3 sequence (P31751 whole entry, the tested form may be a part): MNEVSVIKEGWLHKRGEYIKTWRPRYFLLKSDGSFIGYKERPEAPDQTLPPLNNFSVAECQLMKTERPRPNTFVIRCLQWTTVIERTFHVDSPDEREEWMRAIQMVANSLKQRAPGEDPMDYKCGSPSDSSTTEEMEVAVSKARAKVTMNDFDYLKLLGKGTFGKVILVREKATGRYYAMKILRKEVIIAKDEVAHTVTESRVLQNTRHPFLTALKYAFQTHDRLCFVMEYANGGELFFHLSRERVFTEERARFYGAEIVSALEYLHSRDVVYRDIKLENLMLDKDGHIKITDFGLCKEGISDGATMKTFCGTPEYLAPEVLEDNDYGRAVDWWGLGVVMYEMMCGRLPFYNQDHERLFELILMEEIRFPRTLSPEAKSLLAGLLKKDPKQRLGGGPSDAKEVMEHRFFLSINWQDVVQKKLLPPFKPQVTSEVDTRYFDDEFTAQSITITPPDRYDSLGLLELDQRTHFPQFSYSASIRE
How it was run: as §1

SMILES	IC50 (AKT1 E17K) [nM]	IC50 (AKT1 WT) [nM]	IC50 [1] [nM]	IC50 (AKT2) [nM]
C=CC(=O)Nc1cccc(C(=O)N[C@H]2CCc3cc(-n4c(-c5cccnc5N)nc5ccc(-n6cccn6)nc54)ccc32)c1 [Example 2, (S)-3-acrylamido-N-(5-(2-(2-aminopyridin-3-yl)-5-(1H-pyrazol-1-yl)-3H-imidazo[4,5-b]pyridin-3-yl)-2,3-dihydro-1H-inden-1-yl)benzamide]	22.7	18.7	189	117
C=CC(=O)N1CCc2c(C(=O)N[C@H]3CCc4cc(-n5c(-c6cccnc6N)nc6ccc(-n7cccn7)nc65)ccc43)cccc21 [Example 3, N-[(1S)-5-[2-(2-aminopyridin-3-yl)-5-(pyrazol-1-yl)imidazo[4,5-b]pyridin-3-yl]-2,3-dihydro-1H-inden-1-yl]-1-(prop-2-enoyl)-2,3-dihydroindole-4-carboxamide]	32.8	15.1	833	70
C=CC(=O)Nc1cccc(F)c1C(=O)N[C@H]1CCc2cc(-n3c(-c4cccnc4N)nc4ccc(-n5cccn5)nc43)ccc21 [Example 6, N-[(1S)-5-[2-(2-aminopyridin-3-yl)-5-(pyrazol-1-yl)imidazo[4,5-b]pyridin-3-yl]-2,3-dihydro-1H-inden-1-yl]-2-fluoro-6-(prop-2-enamido)benzamide]	20.1	11.9	144	22
C=CC(=O)N1CCc2ccc(C(=O)N[C@H]3CCc4cc(-n5c(-c6cccnc6N)nc6ccc(-n7cccn7)nc65)ccc43)cc21 [Example 7, (S)-1-acryloyl-N-(5-(2-(2-aminopyridin-3-yl)-5-(1H-pyrazol-1-yl)-3H-imidazo[4,5-b]pyridin-3-yl)-2,3-dihydro-1H-inden-1-yl)indoline-6-carboxamide]	42.8	20.7	2060	69.4
C=C(F)C(=O)Nc1cccc(C(=O)N[C@H]2CCc3cc(-n4c(-c5cccnc5N)nc5ccc(-n6cccn6)nc54)ccc32)c1 [Example 8, (S)-N-(5-(2-(2-aminopyridin-3-yl)-5-(1H-pyrazol-1-yl)-3H-imidazo[4,5-b]pyridin-3-yl)-2,3-dihydro-1H-inden-1-yl)-3-(2-fluoroacrylamido)benzamide]	112	7.07	1120	71.5
C=CC(=O)N1CCc2cccc(C(=O)N[C@H]3CCc4cc(-n5c(-c6cccnc6N)nc6ccc(-n7cccn7)nc65)ccc43)c21 [Example 10, N-[(1S)-5-[2-(2-aminopyridin-3-yl)-5-(pyrazol-1-yl)imidazo[4,5-b]pyridin-3-yl]-2,3-dihydro-1H-inden-1-yl]1-(prop-2-enoyl)-2,3-dihydroindole-7-carboxamide]	> 1000	121	1860	1470
C=CC(=O)Nc1cc(C(=O)N[C@H]2CCc3cc(-n4c(-c5cccnc5N)nc5ccc(-n6cccn6)nc54)ccc32)ccn1 [Example 11, (S)-2-acrylamido-N-(5-(2-(2-aminopyridin-3-yl)-5-(1H-pyrazol-1-yl)-3H-imidazo[4,5-b]pyridin-3-yl)-2,3-dihydro-1H-inden-1-yl)isonicotinamide]	7.03	4.29	650	25.9
CC#CC(=O)Nc1cccc(C(=O)N[C@H]2CCc3cc(-n4c(-c5cccnc5N)nc5ccc(-n6cccn6)nc54)ccc32)c1 [Example 12, (S)-N-(5-(2-(2-aminopyridin-3-yl)-5-(1H-pyrazol-1-yl)-3H-imidazo[4,5-b]pyridin-3-yl)-2,3-dihydro-1H-inden-1-yl)-3-(but-2-ynamido)benzamide]	12.9	11.2	343	129
C=CC(=O)N1CC2CCC(C1)C2N[C@H]1CCc2cc(-n3c(-c4cccnc4N)nc4ccc(-n5cccn5)nc43)ccc21 (stereo partly drawn) [Example 14, 1-(8-{[(1S)-5-[2-(2-aminopyridin-3-yl)-5-(pyrazol-1-yl)imidazo[4,5-b]pyridin-3-yl]-2,3-dihydro-1H-inden-1-yl]amino}-3-azabicyclo[3.2.1]octan-3-yl)prop-2-en-1-one]	436	85.3	1160	1420
C=CC(=O)Nc1cccc(C)c1C(=O)N[C@H]1CCc2cc(-n3c(-c4cccnc4N)nc4ccc(-n5cccn5)nc43)ccc21 [Example 15, (S)-2-acrylamido-N-(5-(2-(2-aminopyridin-3-yl)-5-(1H-pyrazol-1-yl)-3H-imidazo[4,5-b]pyridin-3-yl)-2,3-dihydro-1H-inden-1-yl)-6-methylbenzamide]	78.7	34.3	366	377
C=C(F)C(=O)N1CCc2c(C(=O)N[C@H]3CCc4cc(-n5c(-c6cccnc6N)nc6ccc(-n7cccn7)nc65)ccc43)cccc21 [Example 18, (S)-N-(5-(2-(2-aminopyridin-3-yl)-5-(1H-pyrazol-1-yl)-3H-imidazo[4,5-b]pyridin-3-yl)-2,3-dihydro-1H-inden-1-yl)-1-(2-fluoroacryloyl)indoline-4-carboxamide]	243	61.5	1570	208
C=CC(=O)Nc1ccccc1C(=O)N[C@H]1CCc2cc(-n3c(-c4cccnc4N)nc4ccc(-n5nccn5)nc43)ccc21 [Example 19, (S)-2-acrylamido-N-(5-(2-(2-aminopyridin-3-yl)-5-(2H-1,2,3-triazol-2-yl)-3H-imidazo[4,5-b]pyridin-3-yl)-2,3-dihydro-1H-inden-1-yl)benzamide]	27	15.8	88	326
C=C(F)C(=O)Nc1ccccc1C(=O)N[C@H]1CCc2cc(-n3c(-c4cccnc4N)nc4ccc(-n5nccn5)nc43)ccc21 [Example 23, (S)-N-(5-(2-(2-aminopyridin-3-yl)-5-(2H-1,2,3-triazol-2-yl)-3H-imidazo[4,5-b]pyridin-3-yl)-2,3-dihydro-1H-inden-1-yl)-2-(2-fluoroacrylamido)benzamide]	135	50.1	426	2250

The next lines start with the values.

IC50 (AKT1 E17K) [nM]	IC50 (AKT1 WT) [nM]	IC50 [1] [nM]	IC50 (AKT2) [nM]	SMILES
823	212	4210	3750	C=CC(=O)N(C)c1ccccc1C(=O)N[C@H]1CCc2cc(-n3c(-c4cccnc4N)nc4ccc(-n5cccn5)nc43)ccc21 [Example 4, (S)-N-(5-(2-(2-aminopyridin-3-yl)-5-(1H-pyrazol-1-yl)-3H-imidazo[4,5-b]pyridin-3-yl)-2,3-dihydro-1H-inden-1-yl)-2-(N-methylacrylamido)benzamide]
46.2	19.4	310	271	C=C(F)C(=O)Nc1ccccc1C(=O)N[C@H]1CCc2cc(-n3c(-c4cccnc4N)nc4ccc(-n5cccn5)nc43)ccc21 [Example 5, (S)-N-(5-(2-(2-aminopyridin-3-yl)-5-(1H-pyrazol-1-yl)-3H-imidazo[4,5-b]pyridin-3-yl)-2,3-dihydro-1H-inden-1-yl)-2-(2-fluoroacrylamido)benzamide]
96.9	21.9	528	440	CC#CC(=O)Nc1ccccc1C(=O)N[C@H]1CCc2cc(-n3c(-c4cccnc4N)nc4ccc(-n5cccn5)nc43)ccc21 [Example 9, N-[(1S)-5-[2-(2-aminopyridin-3-yl)-5-(pyrazol-1-yl)imidazo[4,5-b]pyridin-3-yl]-2,3-dihydro-1H-inden-1-yl]-2-(but-2-ynamido)benzamide]
52.7	11.3	183	67.8	CN(C)C/C=C/C(=O)Nc1ccccc1C(=O)N[C@H]1CCc2cc(-n3c(-c4cccnc4N)nc4ccc(-n5cccn5)nc43)ccc21 [Example 16, (S,E)-N-(5-(2-(2-aminopyridin-3-yl)-5-(1H-pyrazol-1-yl)-3H-imidazo[4,5-b]pyridin-3-yl)-2,3-dihydro-1H-inden-1-yl)-2-(4-(dimethylamino)but-2-enamido)benzamide]
146	43	2330	1020	C=C(C)C(=O)Nc1ccccc1C(=O)N[C@H]1CCc2cc(-n3c(-c4cccnc4N)nc4ccc(-n5cccn5)nc43)ccc21 [Example 17, (S)-N-(5-(2-(2-aminopyridin-3-yl)-5-(1H-pyrazol-1-yl)-3H-imidazo[4,5-b]pyridin-3-yl)-2,3-dihydro-1H-inden-1-yl)-2-methacrylamidobenzamide]
9.64	7.5	18.3	20.2	C=CC(=O)Nc1ccc(F)cc1C(=O)N[C@H]1CCc2cc(-n3c(-c4cccnc4N)nc4ccc(-n5cccn5)nc43)ccc21 [Example 20, N-[(1S)-5-[2-(2-aminopyridin-3-yl)-5-(pyrazol-1-yl)imidazo[4,5-b]pyridin-3-yl]-2,3-dihydro-1H-inden-1-yl]-5-fluoro-2-(prop-2-enamido)benzamide]
32.8	22.6	88.5	74.8	C=CC(=O)Nc1cc(F)ccc1C(=O)N[C@H]1CCc2cc(-n3c(-c4cccnc4N)nc4ccc(-n5cccn5)nc43)ccc21 [Example 21, (S)-2-acrylamido-N-(5-(2-(2-aminopyridin-3-yl)-5-(1H-pyrazol-1-yl)-3H-imidazo[4,5-b]pyridin-3-yl)-2,3-dihydro-1H-inden-1-yl)-4-fluorobenzamide]
